Assay results: patent US6165982A, “Use of sericin as antioxidants and tyrosinase inhibitors” (Seiren Co., Ltd., priority 1996, dated 2000)

System: rat brain homogenate
Test: Inhibitory test of lipid peroxide in rat brain homogenate (TBARS, TBA method)
Assay type: biochemical
Conditions: for Inhibitory rate on an increase in lipid peroxide: 37° C., 2 hours, TBARS
Method: To 1 g of the rat brain stored under refrigeration was added 9 ml of 0.075M phosphate buffer (pH 7.5) and the mixture was homogenated under ice-cooling (hereinafter referred to as homogenate). To 0.5 ml of the homogenate obtained above was added 3.5 ml each of 0.075M phosphate buffers containing Sericin L and Sericin H (pH 7.5), respectively. Incubation was continued at 37° C. for 2 hours. At the end of this time, the respective final concentrations of sericin were made to 0.02~0.5%. Immediately before the isolation and after the incubation for 2 hours, 0.5 ml each of the samples was recovered and then TBARS (thiobarbituric acid reactive substance), an indicator of lipid peroxide level, was determined according to the TBA (thiobarbituric acid) method. Antioxidizing ability of sericin was calculated from the TBARS amount obtained when no sericin was added and the TBARS amount obtained when sericin was added according to the following equation 1 and expressed in terms of an inhibitory rate on an increase in lipid peroxide by incubation. In all cases of this Test Example and the following Test Examples 2~5, tests were repeated three times and the results were shown with an average value of the numerical values thus obtained. Inhibitory rate (%)=(1-A/B)×100 Equation 1 A: Increased TBARS amount obtained when a lipid peroxide inhibitory agent (an antioxidant) was added B: Increased TBARS amount obtained when no lipid peroxide inhibitory agent (an antioxidant) was added To 0.5 ml of a sample were added 2.5 ml of a 8% trichloroacetic acid solution and 2.0 ml of a 0.67% thiobarbituric acid solution and the resulting mixture was thoroughly mixed and then heated in a boiling water bath for 15 minutes. Thereafter, the mixture was centrifuged at 2000× g for 10 minutes and the supernatant was measured for absorbance at 535 nm to determine a TBARS amount. 1,1,3,3-Tetraethoxypropane was used as a standard. To 0.5 ml of the homogenate obtained above was added 3.5 ml each of 0.075M phosphate buffers (pH 7.5) containing Sericin L, ascorbic acid (vitamin C) and bovine serum albumin, respectively. Incubation was continued at 37° C. for 2 hours. The final concentrations of Sericin L, ascorbic acid and albumin were made to 0.01%~1.0%. After incubation, a TBARS amount was determined according to the TBA method, similarly to Test Example 1 and inhibitory rates on an increase in lipid peroxide were determined, respectively.

Which results are given for `O=C1O[C@H]([C@@H](O)CO)C(O)=C1O` [Ascorbic acid, ascorbic acid]?
Inhibitory rate on an increase in lipid peroxide (final concentration 0.01%): -39%; Inhibitory rate on an increase in lipid peroxide (final concentration 0.05%): 39%; Inhibitory rate on an increase in lipid peroxide (final concentration 0.1%): 87%; Inhibitory rate on an increase in lipid peroxide (final concentration 0.5%): 97%; Inhibitory rate on an increase in lipid peroxide (final concentration 1.0%): 96%; Effect on oxidation at low concentration (in words) (low concentration range of 0.01%): oxidation may be accelerated
